Results published in patent US5773424A, “Treatment of toxoplasmosis” (priority 1994, dated 1998).
Read-outs that look alike come from different tables or passages of the source.

Tests used:
[1] = test system: Toxoplasma gondii grown in human fibroblasts; assay: Incorporation of radiolabeled uracil (parasite survival); type: cell-based; details: Toxoplasma gondii, Fibroblast, read-out: percent survival of Toxoplasma gondii grown in human fibroblasts
Experimental: Incorporation of Radiolabeled Uracil. […] Uptake and incorporation of radiolabeled uracil into nucleic acids of T. gondii were carried out, at least in triplicates, in tissue culture, using monolayers of human foreskin fibroblasts infected with T. gondii. The fibroblasts were cultured in no more than 30 passages in Dulbecco's modified Eagle medium, containing 100 units/mL penicillin G and 100 μg/mL streptomycin sulfate, and 10% FBS, pH 7.2. Briefly, confluent cells (4-5 day incubation) were cultured for 24 hours in the 24-well flat bottom microtiterplates (~5×10^5 /1 mL/well) and incubated at 37° C. in 5% CO2, 95% air to allow the cells to attach. The medium was then removed and the cells were infected with isolated T. gondii in medium with 3% FBS (1 parasite/cell). After 1 hour incubation, the cultures were washed with media with 10% FBS to remove extracellular parasites. FBS was maintained at a final concentration of 10%. […] After an additional 18 hours incubation, the medium was replaced with 1 mL drug free media containing […] (2 μCi/mL) and incubated for another 6 hours, after which the media was removed. The fibroblasts were released from the wells by trypsinization with the addition of 200 μL trypsin/EDTA (2.5×) to each well. After 10 minutes incubation, 1 mL of ice cold 10% trichloroacetic acid (TCA) was added to each well. The plates were then placed on a shaker to insure the detachment of the cells. The suspended contents of each well were filtered through GF/A 2.4 cm glass microfiber filters (Whatman, Hillsboro, Oreg.), which were prewashed each with 1 mL double distilled H2 O and dried. After filtration, the filters were washed with 10 mL methanol, left to dry, and then placed in scintillation vials containing 5 mL of Econo-Safe scintillation fluor (Research Products International Corp., Mount Prospect, Ill.), and radioactivity was counted using an LS5801 Beckman scintillation counter.

[2] = Toxicity of compounds, MTT assay; type: cell-based, human; details: human, foreskin fibroblasts, MTT, 48 hours, read-out: percent survival of uninfected human fibroblasts
Experimental: Toxicity of compounds. Toxicity of the different doses of the various analogues were performed at least in triplicates, using a modification of the Microculture Tetrazolium (MTT) assay and uninfected monolayers of human foreskin fibroblasts. Briefly, confluent cells were incubated for at least 24 hours in the 96-well flat bottom microtiterplates (~10^5 /200 μL/well) and incubated at 37° C. in 5% CO2, 95% air to allow the cells to attach. The medium was then replaced with 200 μL of fresh medium. […] The cultures were then incubated for 48 hours, after which 50 μL of sterile MTT solution (2 mg/1 mL PBS) was added to each well. MTT solution was sterilized by filtration through 0.22 μm filters (Costar, Cambridge, Mass.). After 4 hours incubation, the medium was removed and 100 μL of dimethylsulfoxide (DMSO) was added to each well and the plates were shaken gently for 2-3 minutes to dissolve the formed formazan crystals. The absorbance was measured at 540 nm, using a computerized microtiterplate reader (Themomax, Molecular Division)

[3] = target: T. gondii adenosine kinase (Toxoplasma gondii, UniProt Q9TVW2); assay: biochemical; details: for inhibition at 1000 µM: read-out: Inhibition of T. gondii adenosine kinase
T. gondii adenosine kinase, sequence (Q9TVW2 whole entry): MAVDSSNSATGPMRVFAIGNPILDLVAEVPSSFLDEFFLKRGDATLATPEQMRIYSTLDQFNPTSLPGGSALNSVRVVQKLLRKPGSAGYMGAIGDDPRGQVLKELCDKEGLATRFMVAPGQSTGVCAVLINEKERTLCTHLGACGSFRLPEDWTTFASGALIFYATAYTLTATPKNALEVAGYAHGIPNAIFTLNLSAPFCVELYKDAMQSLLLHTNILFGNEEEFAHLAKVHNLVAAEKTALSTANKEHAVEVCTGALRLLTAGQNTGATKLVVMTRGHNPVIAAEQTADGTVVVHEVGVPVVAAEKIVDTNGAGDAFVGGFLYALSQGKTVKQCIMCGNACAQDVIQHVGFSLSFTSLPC
Experimental: Preparation of cytosol extracts. For the structure activity relationships studies, approximately 5×10^8 T. gondii were suspended in 1.2 ml of 50 mM N-2-hydroxyethylpiperazine-N'-2-ethanesulfonic acid (HEPES)-Cl (pH 8.0)/1 mM dithiothreitol and homogenized for 30 seconds at setting 10, using a Brinnmann Instruments Polytron homogenizer fitted with a PTA 7K1 probe. The homogenate was then centrifuged at approximately 116,000 g for 1 hour at 5° and the supernatant (cytosol extract) collected and used as the enzyme source. Fresh cytosol extracts were prepared for each experiment.
Adenosine kinase assay. T. gondii adenosine kinase activity was measured by following the formation of [^14 C]AMP from [^14 C]adenosine and ATP. […] Therefore, the standard reaction mixture contained 50 mM HEPES-Cl (pH 8.0), 1 mM dithiothreitol, 5 μM [8-^14 C]adenosine (45 Ci/mol), 0.5 mM ATP, 0.5 mM MgCl2, 25 μM (+)-EHNA or 100 μM (±)-EHNA,10-30 μl of cytosol extract (approximately 3-10 μg of protein), and either 0, 0.1, 0.25, 0.5 or 1.0 mM of the compound to be tested, in a final volume of 150 μl.
Reactions were started by the addition of [8-^14 C]adenosine, incubated at 37° for 10 minutes and terminated by placing the reaction tubes in a boiling water bath for 2 minutes. Precipitated proteins were removed by centrifugation in a microcentrifuge (approximately 13,000 g) for 5 minutes, and a 15 μl aliquot of the resulting supernatant was mixed with 5 μl of a solution containing 10 mM each of AMP and adenosine. This mixture was then spotted on silica gel thin layer chromatography plates which were developed with a mixture of chloroform/methanol/acetic acid (16:3:1). […] The substrate and product spots (which accounted for all of the radioactivity on the plates) were identified by UV quenching, cut out, and the radioactivity quantitated by liquid scintillation counting in 20 ml of Scintilene, using a Packard 460 scintillation counter. […] Enzyme velocity was calculated by multiplying the fraction of AMP formed from adenosine times the amount of adenosine in the assay, and dividing by the incubation time.
Determination and significance of AppKi values. AppKi values were used to determine the relative degree of binding of compounds to adenosine kinase as compared to adenosine. AppKi values were estimated from Dixon plots of the data (1/.nu. versus [I]), using a computer program with least squares fitting according to the general principles of Cleland (Cleland, W W, The statistical analysis of enzyme kinetic data. Adv. Enzymol. 29:1-32, 1967). The program was written by Dr. Sungman Cha (Brown University, Providence, R.I.) and modified to fit IBM BASIC by Dr. Fardos N. M. Naguib. […] It should be noted, however, that the type of inhibition (i.e., competitive, noncompetitive, or uncompetitive) produced by the compounds was not determined, nor were the compounds evaluated as substrates for T. gondii adenosine kinase.

[4] = 5 μM, [5,6-3H]uracil incorporation
[5] = 10 μM, [5,6-3H]uracil incorporation
[6] = 25 μM, [5,6-3H]uracil incorporation
[7] = 50 μM, [5,6-3H]uracil incorporation

| SMILES | activity at 5 µM [1, 4] [%] | activity at 10 µM [1, 5] [%] | activity at 25 µM [1, 6] [%] | activity at 50 µM [1, 7] [%] | viability at 48 h, 5 µM [2] [%] | viability at 48 h, 10 µM [2] [%] | viability at 48 h, 25 µM [2] [%] | viability at 48 h, 50 µM [2] [%] | Ki [3] [µM] | other results |
| --- | --- | --- | --- | --- | --- | --- | --- | --- | --- | --- |
| Nc1ccc(CNc2ncnc3c2ncn3[C@@H]2O[C@H](CO)[C@@H](O)[C@H]2O)cc1 [Compound 46, N^6 -(p-Aminobenzyl)adenosine] | 100 | 95.6 | 108 | 120 | 93.3 | 91.9 | 101 | 101 |  |  |
| [N-]=[N+]=Nc1ccc(CNc2ncnc3c2ncn3[C@@H]2O[C@H](CO)[C@@H](O)[C@H]2O)cc1 | 36.9 | 17 | 15.1 | 24.5 | 97.3 | 90.3 | 88.9 | 81.5 |  |  |
| O=C(Nc1ncnc2c1ncn2[C@@H]1O[C@H](CO)[C@@H](O)[C@H]1O)c1ccccc1 [Compound 44, N^6 -Benzoyladenosine] | 96.4 | 94.6 | 112 | 100 | 94.4 | 94.1 | 97.6 | 99.3 |  |  |
| O=[N+]([O-])c1ccc(CNc2ncnc3c2ncn3[C@@H]2O[C@H](CO)[C@@H](O)[C@H]2O)cc1 | 35.9 | 27.6 | 21.6 | 8.4 | 104 | 102 | 92.3 | 107 |  |  |
| CCc1nc(N)nc(N)c1-c1ccc(Cl)cc1 [Pyrimethamine, reference compound] | 25.9 | 12.9 | 10.2 | 13.8 | 104 | 98.8 | 108 | 118 |  |  |
| COc1ccc(C(=O)Nc2ncnc3c2ncn3[C@@H]2O[C@H](CO)[C@@H](O)[C@H]2O)cc1 [Compound 47, N^6 -(p-Methoxybenzolyl)adenosine (N^6 -anisoyladenosine)] | 94.2 | 93.1 | 104 | 125 | 92.9 | 92.6 | 99.2 | 97.4 |  |  |
| O=[N+]([O-])c1ccc(C[Se]c2ncnc3c2ncn3[C@@H]2O[C@H](CO)[C@@H](O)[C@H]2O)cc1 [Compound 24, 6-(p-Nitrobenzyl)selenopurine riboside] |  |  |  |  | 89.3 | 90.1 | 63.4 | 39.6 |  | activity at 5 µM [1]: 67.8%; activity at 10 µM [1]: 3.03%; activity at 25 µM [1]: 0%; activity at 50 µM [1]: 0% |
| Nc1ccc(S(=O)(=O)Nc2ncccn2)cc1 [Sulfadiazine, reference compound] | 74.6 | 64.8 | 66.3 | 66.3 | 98.2 | 99.7 | 99.8 | 102 |  |  |
| O=c1[nH]cnc2c1cnn2[C@@H]1O[C@H](CO)[C@@H](O)[C@H]1O [Compound 77, 8-Aza-6-hydroxy-7-deazapurine riboside (allopurinol)] |  |  |  |  |  |  |  |  | 15000 |  |
| O=C(Nc1ncnc2c1ncn2[C@@H]1O[C@H](CO)[C@@H](O)[C@H]1O)c1ccccc1 [Compound 44] |  |  |  |  |  |  |  |  | 23 ± 1 |  |
| Nc1ncnc2c1nc(Br)n2[C@@H]1O[C@H](CO)[C@@H](O)[C@H]1O [Compound 59] |  |  |  |  |  |  |  |  | 660 ± 70 |  |
| Nc1ncnc2c1ncn2[C@@H]1O[C@H](COC(=O)CCC(=O)O)[C@@H](O)[C@H]1O [Compound 100, 5'-Succinyladenosine (adenosine 5'-succinate)] |  |  |  |  |  |  |  |  | 920 ± 600 |  |
| OC[C@H]1O[C@@H](n2ncc3cncnc32)[C@H](O)[C@@H]1O [Compound 75, 8-Aza-7-deazapurine riboside] |  |  |  |  |  |  |  |  | 5100 |  |
| Nc1ccnc2c1ncn2[C@@H]1O[C@H](CO)[C@@H](O)[C@H]1O [Compound 5] |  |  |  |  |  |  |  |  |  | inhibition at 1000 µM [3]: < 10% |
| Nc1nc(NC2C=C(CO)C(O)C2O)c([N+](=O)[O-])c(=O)[nH]1 (stereo not drawn) [Compound 127, 2-Amino-4-(3-hydroxymethyl-4,5-dihydroxy-2-cyclopenten-1-yl)aminto-1,6-dihydro-5-nitro-6-oxopyrimidine] |  |  |  |  |  |  |  |  | 940 ± 110 |  |
| CCCCCCCCCCNc1ncnc2c1ncn2[C@@H]1O[C@H](CO)[C@@H](O)[C@H]1O [Compound 42] |  |  |  |  |  |  |  |  | 380 ± 130 |  |
| Nc1ncnc2c1ncn2[C@@H]1O[C@H](COC(=O)c2ccc(S(=O)(=O)F)cc2)[C@@H](O)[C@H]1O [Compound 105, 5'-(p-Fluorosulfonylbenzoyl)adenosine] |  |  |  |  |  |  |  |  |  | Ki ([3]; AppKi for inhibition of T. gondii adenosine kinase, 5 μM adenosine, ± range, at least two estimations): 340 ± 40 µM |
| Nc1ncnc(NC2C=C(CO)C(O)C2O)c1[N+](=O)[O-] (stereo not drawn) [Compound 125, 4-(3-Hydroxymethyl-4,5-dihydroxy-2-cyclopenten-1-yl)amino-5-nitro-6-aminopyrimidine] |  |  |  |  |  |  |  |  |  | inhibition at 1000 µM [3]: < 10% |
| COc1ccc(C(=O)Nc2ncnc3c2ncn3[C@@H]2O[C@H](CO)[C@@H](O)[C@H]2O)cc1 [Compound 47] |  |  |  |  |  |  |  |  | 3.9 ± 0.9 |  |
| Nc1ncnc2c([C@@H]3O[C@H](CO)[C@@H](O)[C@H]3O)c[nH]c12 [Compound 60] |  |  |  |  |  |  |  |  | 3400 |  |
| CC1(C)O[C@@H]2[C@H](O1)[C@@H](CO)O[C@H]2n1cnc2c(=S)[nH]cnc21 [Compound 122, 2',3'-O-Isopropylidene-6-mercaptopurine riboside] |  |  |  |  |  |  |  |  | 3900 |  |
| Nc1ccc(CNc2ncnc3c2ncn3[C@@H]2O[C@H](CO)[C@@H](O)[C@H]2O)cc1 [Compound 46] |  |  |  |  |  |  |  |  | 120 ± 10 |  |
